One substance from PMC9676923, “Characterization of relaxin 3 and its receptors in chicken: Evidence for relaxin 3 acting as a novel pituitary hormone” (Frontiers in Physiology, 2022) can be followed below.

In experiment [1] the test system is cRXFP1. The experiment is described as follows: pGL3-CRE-luciferase reporter (cAMP/PKA), HEK293 cells expressing cRXFP1. The experiment is classed as cell-based, chicken. How it is done:
(§1) According to our previously established methods ([Liu et al., 2019]; [Jiang et al., 2022]), two cell-based luciferase reporter systems (pGL3-CRE-luciferase and pGL3-NFAT-RE-luciferase) were used to verify whether cRLN3cm is biologically active and capable of activating cRXFP1 and cRXFP3. In brief, HEK293 cells transiently expressing each receptor (cRXFP1 and cRXFP3) were treated with 30 μl serum-free medium containing cRLN3cm or pcDNAcm (0.001–10 μl) for 6 h, and the receptor-activated cAMP/PKA pathways and calcium mobilization were then monitored by pGL3-CRE-luciferase and pGL3-NFAT-RE-luciferase reporter systems, respectively. HEK293 cells expressing empty pcDNA3.1 (+) were used as a negative control.
(§2) To compare the functional difference between chicken RLN3 and human RLN3, recombinant human RLN3 (rhRLN3, 10^–12 to 10^–7 M, 6 h) was used to treat HEK293 cells expressing cRXFP1 or cRXFP3, respectively, and its potency in activating cRXFP1 and cRXFP3 was also evaluated.
(§3) To verify whether chicken RLN3 can activate RXFP1 or RXFP3, a cRLN3-conditioned medium (cRLN3cm, 0.001–10 μl) was used to treat HEK293 cells expressing cRXFP1/cRXFP3. Receptor activation was examined by pGL3-CRE-luciferase and pGL3-NFAT-RE-luciferase reporter systems established in our previous studies ([Liu et al., 2019]).
A general note: In a reporter assay the amount or activity of a reporter protein is the signal.

In experiment [2] the test system is cRXFP3. The experiment is described as follows: pGL3-CRE-luciferase reporter, inhibition of forskolin-stimulated luciferase activity, HEK293 cells expressing cRXFP3. As to conditions: rhRLN3 10^-12 to 10^-7 M, 6 h, HEK293 cells transiently expressing cRXFP3, N = 3, read-out: EC50, cAMP/PKA, cRXFP3 (inhibition of forskolin-stimulated luciferase activity). The experiment is classed as cell-based, chicken. The method, then:
as §1, §2, §3

Experiment [3] deals with cRXFP1. The experiment is described as follows: pGL3-NFAT-RE-luciferase reporter (calcium mobilization), HEK293 cells expressing cRXFP1. As to conditions: rhRLN3 10^-12 to 10^-7 M, 6 h, HEK293 cells transiently expressing cRXFP1, N = 3, read-out: EC50, Ca^2+, cRXFP1. The format is cell-based, chicken. The method, then:
as §1, §2, §3

For experiment [4], the system named is cRXFP3. The experiment is described as follows: pGL3-NFAT-RE-luciferase reporter (calcium mobilization), HEK293 cells expressing cRXFP3. The settings on record: rhRLN3 10^-12 to 10^-7 M, 6 h, N = 3. The format is cell-based, chicken. The method, then: as §1, §2, §3
The test system of experiment [5] is HEK293 cells transfected with an empty pcDNA3.1 (+) vector. In words: Luciferase reporter control, HEK293 cells transfected with empty pcDNA3.1 (+) vector. The format is cell-based. The settings on record: rhRLN3 10^-12 to 10^-7 M, 6 h; pGL3-CRE and pGL3-NFAT-RE reporters; N = 3. The source says:
According to our previously established methods ([Liu et al., 2019]; [Jiang et al., 2022]), two cell-based luciferase reporter systems (pGL3-CRE-luciferase and pGL3-NFAT-RE-luciferase) were used to verify whether cRLN3cm is biologically active and capable of activating cRXFP1 and cRXFP3. […] HEK293 cells expressing empty pcDNA3.1 (+) were used as a negative control.
To explore whether pituitary cells can secrete RLN3, we collected the extracellular medium of adult female chicken pituitary cells to detect its activation potential. According to the method provided in the previous article ([Sun et al., 2021]; [Liu et al., 2022]), the anterior pituitaries from a laying hen were isolated and further cut into small pieces with clean scissors. After washing with PBS, the cut pieces were then digested with 0.25% trypsin at 37°C for 30 min. The dispersed pituitary cells were cultured in Medium 199 supplemented with 10% fetal bovine serum in a Corning Cell BIND 48-well plate (Corning, Tewksbury, MA) at 37°C with 5% CO2. […] The HEK293 cells expressing cRXFP1 were treated with a 60 μl serum-free medium containing chicken pituitary cell extracellular medium (2 × 10^−3μl to 2 × 10^1 μl) for 6 h, and then receptor-activated calcium mobilization was monitored by pGL3-NFAT-RE-luciferase reporter systems. […]

Regarding recombinant human relaxin 3 [rhRLN3], the “potency on cRXFP1 compared with cRXFP3 (in words)” value in the experiment with cRXFP1 [1] (HEK293 cells expressing cRXFP1 or cRXFP3) is reported as “higher potency for cRXFP1 activation”. Besides, the EC50 came to 2.68 nM with cRXFP1 [1] (rhRLN3 10^-12 to 10^-7 M, 6 h, HEK293 cells transiently expressing cRXFP1, mean of three replicates (N = 3)); 41.5 nM in the experiment on cRXFP3 [2]; 21.1 nM in the experiment on cRXFP1 [3]. The “stimulation of luciferase activity (Ca^2+), cRXFP3” value in the experiment on cRXFP3 [4] is listed as “not cRXFP3”. The “change of luciferase activity in empty-vector cells” value in experiment [5] is recorded as “did not change the luciferase activity”.
